The values below come from ChEMBL document CHEMBL5608163, “Structure modification of anoplin for fighting resistant bacteria” (Eur J Med Chem, 2024).

A short description of data set [1]: Hemolytic activity against Red blood cells (unknown origin) incubated for 1 hr by spectrophotometric analysis. It counts as toxicity, cell-based, Erythrocyte.
In data set [2] the test system is Staphylococcus aureus. The data set can be described thus: Antibacterial activity against Staphylococcus aureus assessed as bacterial growth inhibition incubated for 20 hrs by broth microdilution assay. It counts as functional. On the technique in general: Dilution methods test growth across graded concentrations, often in twofold steps.
For data set [3], the system named is Bacillus subtilis. The data set is described as follows: Antibacterial activity against Bacillus subtilis assessed as reduction in bacterial growth incubated for 20 hrs by broth microdilution assay. In kind it is functional.
Data set [4] relates to Escherichia coli. The data set can be described thus: Antibacterial activity against Escherichia coli assessed as reduction in bacterial growth incubated for 20 hrs by broth microdilution assay. It counts as functional.
Data set [5] relates to Pseudomonas aeruginosa. The data set can be described thus: Antibacterial activity against Pseudomonas aeruginosa assessed as reduction in bacterial growth incubated for 20 hrs by broth microdilution assay. It counts as functional.
Data set [6] has as its system Staphylococcus aureus. The data set can be described thus: Antibacterial activity against methicillin resistant Staphylococcus aureus ATCC 33591 assessed as inhibition of bacterial growth incubated for 16 to 20 hrs by broth micro-dilution method. In kind it is functional. Particulars: time 16-20 hrs.
Data set [7] concerns Enterococcus faecium. The data set can be described thus: Antibacterial activity against Vancomycin resistant Enterococcus faecium ATCC 700221 assessed as inhibition of bacterial growth incubated for 16 to 20 hrs by broth micro-dilution method. Particulars: time 16-20 hrs. It counts as functional.
The test system of data set [8] is Erythrocyte. The data set can be described thus: Hemolytic activity in erythrocytes (unknown origin). It counts as toxicity, cell-based.

Converted amounts (≈) assume the structure as drawn. Peptide text beside a SMILES is read from it.

`CC[C@H](C)[C@H](NC(=O)CCCCCNC(=O)[C@H](CC(C)C)NC(=O)[C@H](CC(C)C)NC(=O)[C@@H](NC(=O)[C@H](CCCCN)NC(=O)[C@@H](NC(=O)[C@H](CCCNC(=N)N)NC(=O)[C@H](CCCCN)NC(=O)[C@H](CC(C)C)NC(=O)[C@H](CC(C)C)NC(=O)CN)[C@@H](C)CC)[C@@H](C)O)C(=O)N[C@@H](CC(N)=O)C(=O)N[C@@H](CC(C)C)C(=O)N[C@@H](CCCCN)C(=O)N[C@@H](C)C(=O)N[C@@H](CC(C)C)C(=O)N[C@@H](C)C(=O)N[C@@H](C)C(=O)N[C@@H](CC(C)C)C(=O)N[C@@H](C)C(=O)N[C@@H](CCCCN)C(=O)N[C@@H](CCCCN)C(=O)N[C@H](C(=O)N[C@@H](CC(C)C)C(N)=O)[C@@H](C)CC` yielded an HC50 at 1 h in data set [1] of 60.2 µM. The MIC was found to be 4 µM (≈ 10.9 µg/mL) in data set [2], 2 µM (≈ 5.46 µg/mL) in data set [3], 2 µM (≈ 5.46 µg/mL) in data set [4] and 2 µM (≈ 5.46 µg/mL) in data set [5].

Consider `CC(C)C[C@H](NC(=O)CN)C(=O)N[C@@H](CC(C)C)C(=O)N[C@@H](CCCCN)C(=O)N[C@@H](CCCNC(=N)N)C(=O)N[C@H](Cc1ccc2ccccc2c1)C(=O)N[C@@H](CCCCN)C(=O)N[C@H](C(=O)N[C@@H](CC(C)C)C(=O)N[C@@H](CC1CCCCC1)C(N)=O)[C@@H](C)O`, for which the MIC was 28.4 µM (≈ 36.3 µg/mL) in data set [6] and 3.2 µM (≈ 4.09 µg/mL) in data set [7]. For the same compound, in data set [8], the HC10 is 74.3 µM.

With `CC[C@@H](C)[C@@H](NC(=O)[C@H](CCCCN)NC(=O)[C@H](CCCCN)NC(=O)[C@H](CC(C)C)NC(=O)[C@H](CC(C)C)NC(=O)CN)C(=O)N[C@@H](CCCCN)C(=O)N[C@H](C(=O)N[C@@H](CC(C)C)C(=O)N[C@@H](CC(C)C)C(N)=O)[C@@H](C)O`, the MIC in data set [6] came out at 1020 µM (≈ 1150 µg/mL); in data set [7], 492 µM (≈ 554 µg/mL). Also, the HC10 in data set [8] was 7209 µM.

Consider `CC[C@@H](C)[C@@H](NC(=O)[C@H](CCCCN)NC(=O)[C@H](CCCCN)NC(=O)[C@H](CC(C)C)NC(=O)[C@H](CC(C)C)NC(=O)CN)C(=O)N[C@@H](CCCCN)C(=O)N[C@@H](CCCCN)C(=O)N[C@@H](CC(C)C)C(=O)N[C@@H](CC(C)C)C(N)=O`, for which the figures for the MIC in data set [6] and in data set [7] were 1020 µM (≈ 1180 µg/mL) and 341 µM (≈ 393 µg/mL), respectively. In addition, the HC10 in data set [8] is 1962.4 µM.

Regarding `CC[C@@H](C)[C@@H](NC(=O)[C@H](CCCNC(=N)N)NC(=O)[C@H](CCCCN)NC(=O)[C@H](CC(C)C)NC(=O)[C@H](CC1CCCCC1)NC(=O)CN)C(=O)N[C@@H](CCCCN)C(=O)N[C@H](C(=O)N[C@@H](CC(C)C)C(=O)N[C@@H](CC1CCCCC1)C(N)=O)[C@@H](C)O`, the HC10 in data set [8] turned out to be 225.6 µM.

In the case of `CC(C)C[C@H](NC(=O)[C@H](CC(C)C)NC(=O)[C@H](CCCCN)NC(=O)[C@H](CCCCN)NC(=O)[C@@H](Cc1ccc2ccccc2c1)NC(=O)[C@H](CCCNC(=N)N)NC(=O)[C@H](CCCCN)NC(=O)[C@H](CC(C)C)NC(=O)[C@H](CC1CCCCC1)NC(=O)CN)C(=O)O`, the MIC in data set [6] turned out to be 9.5 µM (≈ 12.4 µg/mL); in data set [7], 3.2 µM (≈ 4.18 µg/mL). In addition, in data set [8], the HC10 came out at 27 µM.

Compound `CC[C@H](C)[C@H](NC(=O)[C@H](CCCCN)NC(=O)[C@H](CCCCN)NC(=O)[C@H](C)NC(=O)[C@H](CC(C)C)NC(=O)[C@H](C)NC(=O)[C@H](C)NC(=O)[C@H](CC(C)C)NC(=O)[C@H](C)NC(=O)[C@H](CCCCN)NC(=O)[C@H](CC(C)C)NC(=O)[C@H](CC(N)=O)NC(=O)[C@@H](NC(=O)[C@H](CC(C)C)NC(=O)[C@H](CC(C)C)NC(=O)[C@H](CC(C)C)NC(=O)[C@@H](NC(=O)[C@H](CCCCN)NC(=O)[C@@H](NC(=O)[C@H](CCCNC(=N)N)NC(=O)[C@H](CCCCN)NC(=O)[C@H](CC(C)C)NC(=O)[C@H](CC(C)C)NC(=O)CN)[C@@H](C)CC)[C@@H](C)O)[C@@H](C)CC)C(=O)N[C@@H](CC(C)C)C(N)=O` (H-GLLKRIKTLLLINLKALAALAKKIL-NH2) came in with an HC50 at 1 h in data set [1] of 35.6 µM. Moreover, the MIC in data set [2] is 8 µM (≈ 21.8 µg/mL); in data set [3], 8 µM (≈ 21.8 µg/mL); in data set [4] it was 8 µM (≈ 21.8 µg/mL); in data set [5] it was 16 µM (≈ 43.7 µg/mL).

In data set [1], `CC[C@H](C)[C@H](NC(=O)[C@H](CCCCN)NC(=O)[C@H](CCCCN)NC(=O)[C@H](C)NC(=O)[C@H](CC(C)C)NC(=O)[C@H](C)NC(=O)[C@H](C)NC(=O)[C@H](CC(C)C)NC(=O)[C@H](C)NC(=O)[C@H](CCCCN)NC(=O)[C@H](CC(C)C)NC(=O)[C@H](CC(N)=O)NC(=O)[C@@H](NC(=O)[C@@H]1CCCN1C(=O)[C@H](CC(C)C)NC(=O)[C@H](CC(C)C)NC(=O)[C@@H](NC(=O)[C@H](CCCCN)NC(=O)[C@@H](NC(=O)[C@H](CCCNC(=N)N)NC(=O)[C@H](CCCCN)NC(=O)[C@H](CC(C)C)NC(=O)[C@H](CC(C)C)NC(=O)CN)[C@@H](C)CC)[C@@H](C)O)[C@@H](C)CC)C(=O)N[C@@H](CC(C)C)C(N)=O` (H-GLLKRIKTLLPINLKALAALAKKIL-NH2) registered an HC50 at 1 h of 83.8 µM. The MIC turned out to be 4 µM (≈ 10.9 µg/mL) in data set [2], 2 µM (≈ 5.43 µg/mL) in data set [3], 2 µM (≈ 5.43 µg/mL) in data set [4] and 2 µM (≈ 5.43 µg/mL) in data set [5].

For orientation: HC50 means the concentration giving 50% haemolysis. A lower HC50 goes with more damage to red cells. For orientation: MIC means the least concentration at which growth counts as inhibited.
